Here are results for 1 compound from patent US8697747B2, “Enhancing coagulation or reducing fibrinolysis” (THe UAB Research Foundation, priority 2009, dated 2014).

The test system of the assay is prothrombin deficient plasma. In words: Thrombelastography in prothrombin deficient plasma with purified prothrombin. The assay is classed as biochemical, human. The conditions noted are these: mean ± SD. The procedure:
Plasma types, purified proteins and compounds. Prothrombin deficient plasma (George King Bio-Medical, Overland Park, Kans.) anticoagulated with sodium citrate was utilized for experimentation concerning the effects of CORM-2 on prothrombin. Purified prothrombin (Enzyme Research Laboratories, South Bend, Ind.) that was 95% pure (10.4 mg/mL, 11.1 U/mg, suspended in 20 mM Tris-HCl in 0.1M NaCl at pH 7.4) was used for experimentation. Fibrinogen deficient plasma (Affinity Biologicals, Inc., Ancaster, Ontario, Canada) anticoagulated with sodium citrate was used in experiments investigating the effects of CORM-2 on fibrinogen. […] CORM-2 and dimethyl sulfoxide (DMSO) were obtained from Sigma-Aldrich, St. Louis, Mo.
Exposure of purified prothrombin to CORM-2. In order to determine if pre-exposure of prothrombin with CORM-2 would enhance coagulation kinetics in prothrombin deficient plasma, 396 μL of pure prothrombin solution was combined with 4 μL of either DMSO or CORM-2 in DMSO for a final concentration of 0 or 100 μM CORM-2. This solution was incubated for 5 min at 37° C. prior to being added to prothrombin deficient plasma for thrombelastographic analyses. A volume of 3.1 μL of incubated solution was added to the final reaction mixture subsequently presented for a final prothrombin activity of 1 U/mL.
Prothrombin deficient plasma experiments. The final volume for experiments involving prothrombin deficient plasma was 359.1-360.7 μL. In experiments involving pre-exposure of prothrombin to 0 or 100 μM CORM-2 (n=7 per concentration), the sample consisted of 326 μL of prothrombin deficient plasma, 3.1 μL of prothrombin solution, 10 μL of tissue factor reagent (0.1% final concentration in dH2O; Instrumentation Laboratory, Lexington, Mass.), and 20 μL of 200 mM CaCl2. In experiments involving simple CORM-2 addition (positive control) to the reactants, the sample mixture consisted of 324 μL of prothrombin deficient plasma, 3.1 μL of prothrombin solution, 3.6 μL of DMSO or CORM-2 in DMSO (final CORM-2 concentration 0 or 100 μM, n=8 per concentration), 10 μL of tissue factor reagent (0.1% final concentration), and 20 μl of 200 mM CaCl2.
Thrombelastographic monitoring. Plasma sample mixtures were placed in a disposable cup in a computer-controlled THROMBELASTOGRAPH® hemostasis system (Model 5000, Haemoscope Corp., Niles, Ill.), with addition of CaCl2 as the last step to initiate clotting. Data were collected until clot strength stabilized. The following previously described variables (Examples 1-3) were determined at 37° C.: Time to maximum rate of thrombus generation (TMRTG): This is the time interval (sec) observed prior to maximum speed of clot growth. Maximum rate of thrombus generation (MRTG): This is the maximum velocity of clot growth observed (dynes/cm^2/sec). Total Thrombus Generation (TTG): This is the total area under the velocity curve during clot growth (dynes/cm^2), representing the amount of clot strength generated during clot growth.
Statistical Analyses. Data obtained from experiments involving prothrombin deficient plasma are presented as mean±SD. Typically, n=6-8 provides statistical power >0.8 in similar analyses (Examples 1 and 2). Analyses of the effects of CORM-2 on thrombelastographic variables were conducted using unpaired, two-tailed Student's t-tests. A P value of <0.05 was considered significant. Graphical representation of the thrombelastographic data derived from experiments with […] deficient plasma was generated with commercially available software (SigmaPlot 11.0, Systat Software, Inc., San Jose, Calif.). Coagulation kinetic model equations were derived with the same software. The difference between the mean values of MRTG or TTG in samples exposed to 0 or 100 μM CORM-2 were determined and expressed as percent difference secondary to CORM-2 exposure in the […] deficient plasma experiments.

[1] abbreviates: 100 μM CORM-2 added to prothrombin deficient plasma mixed with prothrombin, n=8.
Setting [2] is: purified prothrombin pre-exposed to 100 μM CORM-2, then added to prothrombin deficient plasma, n=7.

Regarding `[C-]#[O+].[C-]#[O+].[C-]#[O+].[C-]#[O+].[C-]#[O+].[C-]#[O+].[Cl][Ru][Cl].[Cl][Ru][Cl]` [CORM-2, tricarbonyldichlororuthenium (II) dimer], under setting [1], the “MRTG (maximum rate of thrombus generation)” value was 9.17 ± 0.36 dynes/cm^2/sec, the “TMRTG (time to maximum rate of thrombus generation)” value stood at 1.85 ± 0.04 min and the “TTG (total thrombus generation)” value worked out at 152 ± 7 dynes/cm^2. Under setting [2], the “MRTG (maximum rate of thrombus generation)” value was 4.65 ± 0.99 dynes/cm^2/sec, the “TMRTG (time to maximum rate of thrombus generation)” value worked out at 2.15 ± 0.56 min and the “TTG (total thrombus generation)” value came to 88 ± 3 dynes/cm^2.
